The compounds below were run against EGFR wt (Homo sapiens (Human), UniProt P00533) (assay: Biochemical EGFR inhibition assay (poly-GT substrate phosphorylation, TR-FRET LANCE Ultra)). Conditions: 100 μM ATP; read-out: wt (100 μM ATP).
Procedure: (§1) Initially, the inhibitory effect of compounds according to the invention is measured in biochemical assays which measure the phosphorylation activity of EGFR enzyme forms on poly-GT substrate in the presence of different concentrations of ATP (5 μM and 100 μM final assay concentration).
(§2) The following enzyme forms of EGFR are representative examples that can be used in these assays at the given concentrations:
(§3) For the chosen highest assay concentration of 100 μM, 150 nL of compound solution is transferred from a 10 mM DMSO compound stock solution. A series of eleven fivefold dilutions per compound is transferred to the assay plate, compound dilutions are tested in duplicates. DMSO is added as backfill to a total volume of 150 nL. The assay runs on a fully automated robotic system.
(§4) 5 μL of EGFR enzyme form in assay buffer (50 mM HEPES pH 7.3, 10 mM MgCl2, 1 mM EGTA, 0.01% Tween 20, 2 mM DTT) are dispensed into columns 1-23, than 5 μL of ATP and ULight-poly-GT substrate (PerkinElmer; TRF0100-M) mix in assay buffer is added to all wells (final assay concentration of the ULight-poly-GT substrate 200 nM). Each of the different EGFR enzyme form assays is available at low ATP (final assay concentration 5 μM) and high ATP levels (final assay concentration 100 μM). After 90 minutes incubation at room temperature 5 μL EDTA (final assay concentration 50 mM) and LANCE Eu-anti-P-Tyr (PT66) antibody (PerkinElmer, AD0069) (final assay concentration 6 nM) mix are added to stop the reaction and start the binding of the antibody. […] Each plate contains 16 wells of a negative control (diluted DMSO instead of test compound; w EGFR enzyme form; column 23) and 16 wells of a positive control (diluted DMSO instead of test compound; w/o EGFR enzyme form; column 24). Negative and positive control values are used for normalization and IC50 values are calculated and analysed using a 4 parametric logistic model.
(§5) These biochemical EGFR enzyme form compound dose-response assays quantify the kinase activity via phosphorylation of a tagged poly-GT substrate. The results of the assay are provided as IC50 values.

EGFR wt, sequence (P00533 25-1210): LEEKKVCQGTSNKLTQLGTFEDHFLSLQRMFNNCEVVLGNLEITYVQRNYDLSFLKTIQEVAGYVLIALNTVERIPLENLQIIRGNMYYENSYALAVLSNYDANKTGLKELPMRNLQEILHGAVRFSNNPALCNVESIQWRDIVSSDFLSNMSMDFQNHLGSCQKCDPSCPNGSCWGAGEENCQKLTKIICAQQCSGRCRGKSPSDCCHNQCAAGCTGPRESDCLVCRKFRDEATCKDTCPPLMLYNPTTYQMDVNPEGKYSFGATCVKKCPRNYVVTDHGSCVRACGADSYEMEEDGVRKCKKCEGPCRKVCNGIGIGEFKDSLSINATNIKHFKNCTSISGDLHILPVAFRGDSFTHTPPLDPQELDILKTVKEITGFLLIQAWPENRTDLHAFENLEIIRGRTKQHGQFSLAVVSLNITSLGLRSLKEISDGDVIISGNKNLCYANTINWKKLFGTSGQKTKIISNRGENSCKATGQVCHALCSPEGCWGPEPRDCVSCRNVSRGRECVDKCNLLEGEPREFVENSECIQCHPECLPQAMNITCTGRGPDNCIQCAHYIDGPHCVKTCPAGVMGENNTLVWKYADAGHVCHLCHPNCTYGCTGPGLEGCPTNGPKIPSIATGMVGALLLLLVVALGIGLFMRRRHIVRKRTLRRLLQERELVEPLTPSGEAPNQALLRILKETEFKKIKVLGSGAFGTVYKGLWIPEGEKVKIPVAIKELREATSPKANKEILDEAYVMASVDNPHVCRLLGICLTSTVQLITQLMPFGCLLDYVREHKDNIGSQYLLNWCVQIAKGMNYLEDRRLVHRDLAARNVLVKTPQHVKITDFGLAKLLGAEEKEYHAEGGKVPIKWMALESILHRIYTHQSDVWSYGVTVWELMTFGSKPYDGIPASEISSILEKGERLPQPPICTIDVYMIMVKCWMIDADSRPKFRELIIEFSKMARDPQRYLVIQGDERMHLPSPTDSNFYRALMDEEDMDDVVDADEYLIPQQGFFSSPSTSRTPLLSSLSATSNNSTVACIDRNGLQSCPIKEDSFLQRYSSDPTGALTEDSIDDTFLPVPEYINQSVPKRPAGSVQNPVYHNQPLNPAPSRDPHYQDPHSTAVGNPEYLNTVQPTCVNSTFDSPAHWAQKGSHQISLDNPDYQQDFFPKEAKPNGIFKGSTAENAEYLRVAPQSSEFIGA

IC50 [nM] | SMILES
> 100000 | Cc1cc2cc(n1)-c1cnn(C)c1OCCCCCN1/C(=N/C2=O)Nc2ccccc21 [Compound I-001]
900 | Cc1cc2cc(n1)-c1cnn(C)c1OCCC[C@@H](C)CN1/C(=N/C2=O)Nc2ccccc21 [Compound I-003]
> 100000 | Cc1cc2cc(n1)-c1cnn(C)c1OCCC[C@@H](C)CN1/C(=N/C2=O)Nc2ccc(Br)cc21 [Compound I-005]

What follows are compounds tested against EGFR (mutated) 695-1022, T790M, C797S, L858R (Homo sapiens (Human), UniProt P00533, C797S/L858R/T790M) in the same assay as above. Conditions: 100 μM ATP; read-out: LR_TM_CS (100 μM ATP).
Procedure: as §1, §2, §3, §4, §5

EGFR (mutated) 695-1022, T790M, C797S, L858R, sequence (P00533 695-1022 T790M/C797S/L858R): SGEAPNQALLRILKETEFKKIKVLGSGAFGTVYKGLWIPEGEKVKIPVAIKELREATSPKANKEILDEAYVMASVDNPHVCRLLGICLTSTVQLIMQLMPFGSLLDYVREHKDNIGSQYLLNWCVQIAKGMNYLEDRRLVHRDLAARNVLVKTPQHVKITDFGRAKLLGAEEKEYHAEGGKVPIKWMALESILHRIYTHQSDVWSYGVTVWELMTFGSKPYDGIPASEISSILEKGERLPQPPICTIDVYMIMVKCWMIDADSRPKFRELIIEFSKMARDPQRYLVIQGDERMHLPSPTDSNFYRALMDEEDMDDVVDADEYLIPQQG

IC50 [nM] | SMILES
6 | Cc1cc2cc(n1)-c1cnn(C)c1OCCCCCN1/C(=N/C2=O)Nc2ccccc21 [Compound I-001]
3 | Cc1cc2cc(n1)-c1cnn(C)c1OCCC[C@@H](C)CN1/C(=N/C2=O)Nc2ccccc21 [Compound I-003]
16 | Cc1cc2cc(n1)-c1cnn(C)c1OCCC[C@@H](C)CN1/C(=N/C2=O)Nc2ccc(Br)cc21 [Compound I-005]

The compounds below were run against EGFR del19 T790M C797S (Homo sapiens, UniProt P00533, C797S/T790M, form not given) (assay: pEGFR assay: phosphorylation of EGFR at Tyr1068 in Ba/F3 cells (AlphaScreen Surefire)). Conditions: 4 h.
Type: cell-based
Procedure: Transduced cells were selected using puromycin. Following selection, IL-3 was withdrawn and IL-3 independent cells cultured. p-EGFR Tyr1068 was determined using the AlphaScreen Surefire pEGF Receptor (Tyr1068) Assay (PerkinElmer, TGRERS). […] Subsequently, 60.000 cells/well in 60 μL were added. Cells were incubated with compound for 4 h at 37° C. […] The mixture was incubated at room temperature with shaking (700 rpm) for 20 min. After centrifugation, 4 μL of the lysate were transferred to Proxiplates. […] Plates were shaken for 1 min (1400 rpm) and incubated for 2 h at room temperature in the dark.

EGFR del19 T790M C797S, sequence (P00533 25-1210 T790M/C797S limits assumed, form open): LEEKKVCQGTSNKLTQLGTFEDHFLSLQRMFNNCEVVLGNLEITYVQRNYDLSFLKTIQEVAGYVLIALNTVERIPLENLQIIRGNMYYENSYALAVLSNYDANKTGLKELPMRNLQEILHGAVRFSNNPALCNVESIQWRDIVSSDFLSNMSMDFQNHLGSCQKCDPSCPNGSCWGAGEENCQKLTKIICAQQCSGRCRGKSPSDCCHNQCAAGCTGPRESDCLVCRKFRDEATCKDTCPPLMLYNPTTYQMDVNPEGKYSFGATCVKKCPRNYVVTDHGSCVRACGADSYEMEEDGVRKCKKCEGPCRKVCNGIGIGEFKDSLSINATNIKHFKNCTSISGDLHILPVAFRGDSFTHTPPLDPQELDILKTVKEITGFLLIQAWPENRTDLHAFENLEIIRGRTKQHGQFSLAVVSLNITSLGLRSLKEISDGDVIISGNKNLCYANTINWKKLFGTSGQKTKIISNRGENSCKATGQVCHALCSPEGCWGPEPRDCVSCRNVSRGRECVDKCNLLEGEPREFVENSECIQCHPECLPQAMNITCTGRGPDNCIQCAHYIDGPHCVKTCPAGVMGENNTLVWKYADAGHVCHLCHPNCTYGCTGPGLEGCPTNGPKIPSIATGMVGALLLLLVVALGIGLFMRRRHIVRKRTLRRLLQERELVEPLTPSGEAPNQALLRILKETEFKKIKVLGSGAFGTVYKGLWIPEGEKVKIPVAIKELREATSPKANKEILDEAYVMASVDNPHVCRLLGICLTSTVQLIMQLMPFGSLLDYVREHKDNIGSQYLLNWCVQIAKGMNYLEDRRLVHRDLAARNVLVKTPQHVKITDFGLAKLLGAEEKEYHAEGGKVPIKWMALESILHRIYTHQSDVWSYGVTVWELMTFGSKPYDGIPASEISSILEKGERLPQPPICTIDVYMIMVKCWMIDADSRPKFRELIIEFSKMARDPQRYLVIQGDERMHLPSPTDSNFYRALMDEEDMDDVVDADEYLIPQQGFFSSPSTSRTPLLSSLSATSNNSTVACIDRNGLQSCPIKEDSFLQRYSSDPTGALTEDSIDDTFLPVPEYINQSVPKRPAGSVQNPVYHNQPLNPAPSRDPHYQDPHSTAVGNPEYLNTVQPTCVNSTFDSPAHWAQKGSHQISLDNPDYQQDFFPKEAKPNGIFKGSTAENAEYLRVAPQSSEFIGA

IC50 [nM] | SMILES
1.2 | Cc1cc2cc(n1)-c1cnn(C)c1OCCCCCN1/C(=N/C2=O)Nc2ccccc21 [Compound I-001]
4.2 | Cc1cc2cc(n1)-c1cnn(C)c1OCCCCCCN1/C(=N/C2=O)Nc2ccccc21 [Compound I-002]
0.8 | Cc1cc2cc(n1)-c1cnn(C)c1OCCC[C@@H](C)CN1/C(=N/C2=O)Nc2ccccc21 [Compound I-003]
1.3 | C[C@@H]1CCCOc2c(cnn2C)-c2cc(cc(C#N)n2)C(=O)/N=C2\Nc3ccccc3N2C1 [Compound I-004]
4 | Cc1cc2cc(n1)-c1cnn(C)c1OCCC[C@@H](C)CN1/C(=N/C2=O)Nc2ccc(Br)cc21 [Compound I-005]
17 | Cc1cc2cc(n1)-c1cnn(C)c1OCC[C@@H]1CC[C@@H](C1)N1/C(=N/C2=O)Nc2ccccc21 [Compound I-006]
1.1 | Cc1cc2cc(n1)-c1cnn(C)c1OCCC[C@@H](O)CN1/C(=N/C2=O)Nc2ccccc21 [Compound I-007]
7.4 | Cc1cc2cc(n1)-c1cnn(C)c1OCCC[C@H](O)CN1/C(=N/C2=O)Nc2ccccc21 [Compound I-008]
1 | Cc1cc2cc(n1)-c1cnn(C)c1OCC[C@H](O)CCN1/C(=N/C2=O)Nc2ccccc21 [Compound I-009]
1.2 | Cc1cc2cc(n1)-c1cnn(C)c1OCCC(O)CCN1/C(=N/C2=O)Nc2ccccc21 (stereo not shown) [Compound I-010]
6.5 | Cc1cc2cc(n1)-c1cnn(C)c1OCC[C@@H](O)CCN1/C(=N/C2=O)Nc2ccccc21 [Compound I-011]
5.2 | Cn1ncc2c1OCCC(O)CCN1/C(=N/C(=O)c3cc(Cl)nc-2c3)Nc2ccccc21 (stereo not shown) [Compound I-012]
0.7 | Cc1cc2cc(n1)-c1cnn(C)c1OC[C@@H](O)C[C@@H](C)CN1/C(=N/C2=O)Nc2ccccc21 [Compound I-013]
4.2 | Cc1cc2cc(n1)-c1cnn(C)c1OC[C@H](O)C[C@@H](C)CN1/C(=N/C2=O)Nc2ccccc21 [Compound I-014]
0.6 | Cc1cc2cc(n1)-c1cnn(C)c1OCC[C@H](O)[C@@H](C)CN1/C(=N/C2=O)Nc2ccccc21 [Compound I-015]
0.8 | Cc1cc2cc(n1)-c1cnn(C)c1OC[C@@H](C)[C@H](O)CCN1/C(=N/C2=O)Nc2ccccc21 [Compound I-016]
8.9 | Cc1cc2cc(n1)-c1cnn(C)c1OC[C@@H](C)[C@@H](O)CCN1/C(=N/C2=O)Nc2ccccc21 [Compound I-017]
0.5 | Cc1cc2cc(n1)-c1cnn(C)c1OCCC[C@@H](C)CN1/C(=N/C2=O)Nc2ccc(OCCN3CCN(C)CC3)cc21 [Compound I-018]
0.6 | Cc1cc2cc(n1)-c1cnn(C)c1OCCC[C@@H](C)CN1/C(=N/C2=O)Nc2ccc(N3CCN(C)CC3)cc21 [Compound I-019]
0.6 | CC[C@@H]1CCCOc2c(cnn2C)-c2cc(cc(C)n2)C(=O)/N=C2\Nc3ccc(N4CCN(C)CC4)cc3N2C1 [Compound I-020]
0.8 | C[C@@H]1CCCOc2c(cnn2C)-c2cc(cc(Cl)n2)C(=O)/N=C2\Nc3ccc(CN4CCN(C)CC4)cc3N2C1 [Compound I-022]
0.5 | C[C@@H]1CCCOc2c(cnn2C)-c2cc(cc(F)n2)C(=O)/N=C2\Nc3cn(C)nc3N2C1 [Compound I-023]
0.6 | Cc1cc2cc(n1)-c1cnn(C)c1OCCC[C@@H](C)CN1/C(=N/C2=O)Nc2cn(C)nc21 [Compound I-024]
0.8 | Cc1cc2cc(n1)-c1cnn(C)c1OCCC[C@@H](C)CN1/C(=N/C2=O)Nc2cnn(C)c21 [Compound I-025]
1.5 | C[C@@H]1CCCOc2c(cnn2C)-c2cc(cc(Cl)n2)C(=O)/N=C2\Nc3cn(C)nc3N2C1 [Compound I-026]
3.5 | C[C@@H]1C[C@H](O)COc2c(cnn2C)-c2cc(cc(Cl)n2)C(=O)/N=C2\Nc3cn(C)nc3N2C1 [Compound I-028]

IC50 [nM] | SMILES
7.5 | C[C@@H]1CCCOc2c(cnn2C)-c2cc(cc(Cl)n2)C(=O)/N=C2\Nc3cnn(C)c3N2C1 [Compound I-029]
28 | Cc1cc2cc(n1)-c1cnn(C)c1OCCC(O)CCN1/C(=N/C2=O)Nc2cnn(C)c21 (stereo not shown) [Compound I-030]
0.5 | Cc1cc2cc(n1)-c1cnn(C)c1OC[C@@H](C)CCCN1/C(=N/C2=O)Nc2ccc(N3CCN(C)CC3)cc21 [Compound I-031]
0.6 | Cc1cc2cc(n1)-c1cnn(C)c1OCCC[C@@H](C)CN1/C(=N/C2=O)Nc2ccc(N3CCOCC3)cc21 [Compound I-032]
0.6 | Cc1cc2cc(n1)-c1cnn(C)c1OCCC[C@@H](C)CN1/C(=N/C2=O)Nc2cc(N3CCN(C)CC3)ccc21 [Compound I-033]
0.7 | C[C@@H]1CCCOc2c(cnn2C)-c2cc(cc(F)n2)C(=O)/N=C2\Nc3ccccc3N2C1 [Compound I-034]
0.7 | Cc1cc2cc(n1)-c1cnn(C)c1OCCC[C@@H](C)CN1/C(=N/C2=O)Nc2ccc(CN(C)C)cc21 [Compound I-035]
0.7 | C[C@@H]1CCCOc2c(cnn2C)-c2cc(ccn2)C(=O)/N=C2\Nc3cnn(C)c3N2C1 [Compound I-036]
1.3 | Cc1cc2cc(n1)-c1cnn(C)c1OCCC[C@@H](C)CN1/C(=N/C2=O)Nc2ccc(C(=O)N(C)C)cc21 [Compound I-038]
1.6 | Cc1cc2cc(n1)-c1cnn(C)c1OCCC[C@@H](C)CN1/C(=N/C2=O)Nc2ccc(C(=O)N3CCN(C)CC3)cc21 [Compound I-039]
1.7 | Cc1cc2cc(n1)-c1cnn(C)c1OC[C@@H](C)CCCN1/C(=N/C2=O)Nc2cnn(C)c21 [Compound I-040]
1.9 | COc1cccc2c1N1C[C@H](C)CCCOc3c(cnn3C)-c3cc(cc(C)n3)C(=O)/N=C/1N2 [Compound I-041]
2.3 | COC(=O)c1ccc2c(c1)N1C[C@H](C)CCCOc3c(cnn3C)-c3cc(cc(C)n3)C(=O)/N=C/1N2 [Compound I-042]
2.3 | Cc1cc2cc(n1)-c1cnn(C)c1OC[C@@H](C)CCCN1/C(=N/C2=O)Nc2cc(N3CCN(C)CC3)ccc21 [Compound I-043]
3.4 | C[C@@H]1CCCOc2c(cnn2C)-c2cc(ccn2)C(=O)/N=C2\Nc3cn(C)nc3N2C1 [Compound I-044]
3.6 | Cc1cc2cc(n1)-c1cnn(C)c1OCC[C@@H](O)[C@H](C)CN1/C(=N/C2=O)Nc2ccccc21 [Compound I-045]
6.2 | O=C1/N=C2\Nc3ccccc3N2CCCCCOc2ccccc2-c2cc1ccn2 [Compound I-047]
15 | C[C@@H]1CCOc2ccccc2-c2cc(ccn2)C(=O)/N=C2\Nc3ccccc3N2CC1 [Compound I-048]
16 | Cc1cc2cc(n1)-c1ccccc1OCCCCCN1/C(=N/C2=O)Nc2ccccc21 [Compound I-049]
17 | CC1(C)CCCOc2ccccc2-c2cc(ccn2)C(=O)/N=C2\Nc3ccccc3N2C1 [Compound I-050]
20 | C[C@H]1CCCOc2ccccc2-c2cc(ccn2)C(=O)/N=C2\Nc3ccccc3N2C1 [Compound I-051]
23 | Cc1cc2cc(n1)-c1cnn(C)c1OCCCCCCCN1/C(=N/C2=O)Nc2ccccc21 [Compound I-052]
24 | O=C1/N=C2\Nc3ccccc3N2CCCCCOc2cc(F)ccc2-c2cc1ccn2 [Compound I-053]
25 | CC1(C)CCOc2ccccc2-c2cc(ccn2)C(=O)/N=C2\Nc3ccccc3N2CC1 [Compound I-054]
66 | Cc1cc2cc(n1)-c1cnn(C)c1OCCCCN1/C(=N/C2=O)Nc2ccccc21 [Compound I-055]
69 | Cc1cc2cc(n1)-c1ccc(F)cc1OCCCCCN1/C(=N/C2=O)Nc2ccccc21 [Compound I-056]
